Results on three molecules are retold here after US20220220135A1 (BAR-ILAN UNIVERSITY, priority 2019, published 2022).

Where two headings read alike, the source gives them in different places.

In series [1] the target is T1, NPP1 (Homo sapiens, UniProt P22413).
T1 sequence (P22413 1-925): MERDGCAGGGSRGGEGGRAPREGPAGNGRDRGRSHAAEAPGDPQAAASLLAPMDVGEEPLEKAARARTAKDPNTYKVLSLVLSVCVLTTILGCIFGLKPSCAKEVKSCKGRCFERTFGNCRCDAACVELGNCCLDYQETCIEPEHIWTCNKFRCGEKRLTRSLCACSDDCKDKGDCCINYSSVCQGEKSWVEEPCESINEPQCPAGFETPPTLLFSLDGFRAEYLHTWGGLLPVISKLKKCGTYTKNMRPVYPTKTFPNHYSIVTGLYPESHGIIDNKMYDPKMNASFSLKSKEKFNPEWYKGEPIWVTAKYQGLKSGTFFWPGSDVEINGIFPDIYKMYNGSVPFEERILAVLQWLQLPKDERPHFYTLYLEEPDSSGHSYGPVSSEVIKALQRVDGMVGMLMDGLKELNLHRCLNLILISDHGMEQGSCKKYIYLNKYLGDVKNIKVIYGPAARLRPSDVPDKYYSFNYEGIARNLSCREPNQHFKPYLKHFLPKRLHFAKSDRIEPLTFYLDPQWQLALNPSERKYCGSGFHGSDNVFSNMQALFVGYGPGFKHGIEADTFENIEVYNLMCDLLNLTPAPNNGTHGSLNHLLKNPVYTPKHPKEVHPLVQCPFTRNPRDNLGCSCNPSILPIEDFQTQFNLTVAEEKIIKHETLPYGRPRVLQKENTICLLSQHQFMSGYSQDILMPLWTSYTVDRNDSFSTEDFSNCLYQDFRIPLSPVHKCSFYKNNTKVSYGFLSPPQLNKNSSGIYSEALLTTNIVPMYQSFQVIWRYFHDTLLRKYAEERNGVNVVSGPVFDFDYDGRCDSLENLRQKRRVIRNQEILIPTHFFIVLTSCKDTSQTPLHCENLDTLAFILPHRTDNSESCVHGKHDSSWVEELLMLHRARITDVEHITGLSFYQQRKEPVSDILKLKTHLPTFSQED
As to the kind of experiment: Inhibition of human NPP1, pNP-TMP as substrate (analogues 9-12). Format: biochemical. On the procedure:
(§1) FIG. 2: Inhibition of NTPDases and NPPs by analogues 9-12 using as substrates ATP (100 μM) for NTPDase1,2,3,8 and pNP-TMP (100 μM) for NPP1,3 (Panel A); and ATP (100 μM) was used as the substrate for NPP1 (Panel B);
Analogues 9-12 were evaluated for their ability to inhibit human NPP1.
(§2) At least 2 independent experiments were performed. In panel A, the activity with 100 μM ATP was set as 100%, which was 287±31, 395±67, 278±22, 119±26 nmol of Pi·min−1·mg of protein−1 for human NTPDase1, -2, -3 and -8, respectively, and the activity with 100 μM pNP-TMP was set as 100% which was 67±5, 21±1 nmol of p-nitrophenol·min−1·mg of protein−1 for human NPP1 and NPP3, respectively. In panel B, the activity with 100 μM ATP was set as 100% which was 34±7 nmol of PPi·min−1·mg of protein−1 for NPP1.

For series [2], the target named is T2, NTPDase8 (Homo sapiens, UniProt Q5MY95).
T2 sequence (Q5MY95 1-495): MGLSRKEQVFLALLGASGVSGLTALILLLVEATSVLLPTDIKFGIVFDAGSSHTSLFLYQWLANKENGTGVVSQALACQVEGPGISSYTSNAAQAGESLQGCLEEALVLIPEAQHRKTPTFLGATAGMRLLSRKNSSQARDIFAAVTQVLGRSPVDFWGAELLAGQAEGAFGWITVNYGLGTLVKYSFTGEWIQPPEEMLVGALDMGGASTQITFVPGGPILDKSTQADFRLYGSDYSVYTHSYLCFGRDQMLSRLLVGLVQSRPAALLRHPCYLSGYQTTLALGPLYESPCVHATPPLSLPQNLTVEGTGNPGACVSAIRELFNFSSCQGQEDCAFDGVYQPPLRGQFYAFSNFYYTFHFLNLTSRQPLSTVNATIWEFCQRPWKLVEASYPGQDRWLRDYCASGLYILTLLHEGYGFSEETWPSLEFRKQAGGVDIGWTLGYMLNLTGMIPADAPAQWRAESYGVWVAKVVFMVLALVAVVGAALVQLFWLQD
As to the kind of experiment: Inhibition of ATPase activity of human NTPDase8. The conditions noted are these: analogue at 100 μM; ATP 100 μM as substrate. It counts as biochemical. Here is the method:
as §1, §2

Series [3] can be described thus: Chemical stability under acidic and basic conditions by 31P-NMR.
Source text: To evaluate the chemical stability of uridine-5′-Pα,α-dithiophosphate analogues, we measured by 31P-NMR the time-dependent percentage of the analogues remaining under basic and acidic conditions, and due to air-oxidation.
In series [4] the target is T1, NPP1. As to the kind of experiment: Stability to hydrolysis by human NPP1. Format: in vitro ADME. The conditions noted are these: analogue 100 μM; activity with 100 μM ATP = 100%. Here is the method:
Uridine 5′-Pα,α-phosphorodithioate analogues, 9-12, were tested for their stability to degradation by NPP1 and NTPDases. These enzymes are involved in the metabolism of extracellular nucleotides. Analogues 9-12 were not hydrolyzed by hNPP1 (Table 2). […] Analogue 10 was hydrolyzed by hNTPDase1, -2 and -3 at 30-39% the rate of ATP and was slightly hydrolyzed by human NTPDase8 at 16% the rate of ATP.
Analogues 9-12 were incubated in the presence of the indicated ectonucleotidase at a concentration of 100 μM. The activity with 100 μM ATP was set as 100%, which was 329±108, 302±34, 263±51, 195±76 nmol of Pi·min−1·mg of protein−1 for NTPDase1, -2, -3 and -8, respectively, and 34±7 nmol for NPP1. Data presented are the mean±SEM of results from two experiments.

Setting [5] is: analogue at 100 μM, pNP-TMP 100 μM as substrate.
The mark [6] stands for this setting: pNP-TMP as a substrate, mean±SEM.
[7] abbreviates: pNP-TMP as a substrate, mean±SEM, read-out: Ki (μM), NPP1 inhibition.

For orientation: inhibition means the drop in the measured response relative to a control, in per cent. Low readings indicate a response near the control, high ones a response far below the control. The IC50 is the point on the concentration scale where inhibition reaches its midpoint. Read a high IC50 as a need for much substance. For orientation: Ki means a dissociation constant, usually derived from enzyme kinetics or from competition with a known ligand. On to `O=c1ccn([C@@H]2O[C@H](COP(=S)(S)OP(=O)(O)OP(=O)(O)O)[C@@H](O)[C@H]2O)c(=O)[nH]1` (some centres unmarked) [Analogue 10], for which testing at 100 µM in series [1] (setting [5]) gave an inhibition of 100%. For the same molecule, in series [1] (setting [6]), the IC50 was determined as 1.2 ± 0.1 µM. Also, the Ki in series [1] (setting [7]) came to 0.24 ± 0.02 µM. Further, the “inhibition of human NTPDase8” value in series [2] was “no inhibition”. For the same molecule, in series [3] (basic, pD 12.1, after 25 days), the decomposition turned out to be 24%. Moreover, in series [3] (pD 2.1 (pH 1.7), RT, 23 days), the “decomposition of starting material” value stood at 15%. Further, the “Relative activity (%) ± SEM of ATP hydrolysis, NPP1” value (shortened to “Relative activity (%) ± SEM”) in series [4] worked out at 0%.

For `O=c1ccn([C@@H]2O[C@H](COP(=S)(S)OP(=O)(O)CP(=O)(O)O)[C@@H](O)[C@H]2O)c(=O)[nH]1` (some centres unmarked) [Analogue 11], in series [1] (setting [6]), half-maximal inhibition (IC50) was put at 4.3 ± 0.1 µM. Moreover, the Ki in series [1] (setting [7]) stood at 1.11 ± 0.19 µM. Further, the “inhibition of human NTPDase8” value in series [2] is “negligible effects”. Further, the decomposition in series [3] (basic, pD 12.1, after 25 days) worked out at 23%; in series [3] (pD 2.1, after 25 days), 6%. Moreover, the “Relative activity (%) ± SEM” value in series [4] turned out to be 0%.

On to `O=c1ccn([C@@H]2O[C@H](COP(=S)(S)OP(=O)(O)OP(=O)(O)OP(=S)(S)OC[C@H]3O[C@@H](n4ccc(=O)[nH]c4=O)[C@H](O)[C@@H]3O)[C@@H](O)[C@H]2O)c(=O)[nH]1` (some centres unmarked) [Analogue 12], for which, in series [1] (setting [5]), the “inhibition of human NPP1” value is given as “effectively blocked”. In addition, in series [1] (setting [6]), half-maximal inhibition (IC50) was put at 0.125 ± 0.004 µM. Also, the Ki in series [1] (pNP-TMP as the substrate, read-out: Ki, NPP1) turned out to be 0.027 µM. Besides, the “inhibition of human NTPDase8” value in series [2] is reported as “selective to NPP1”. The loss of compound in series [3] (basic, pD 12.6, after 16 days) is given as 13%. The molecule also showed a decomposition in series [3] (pD 1.8 (pH 1.4), 16 days, RT) of 6%. The “Relative activity (%) ± SEM” value in series [4] is 0%.
